The results in this text go back to patent US9987276B2 (Celgene CAR LLC, priority 2008, dated 2018).

Where two headings read alike, the source gives them in different places. Some results are limits rather than exact numbers.

For one assay, the target named is BTK (Homo sapiens (Human), UniProt Q06187). Nature of the assay: Omnia assay for potency assessment against BTK. It counts as biochemical. The following applies: [BTK]=5 nM, Omnia assay; read-out: BTK Inhibition (IC50). The method, then:
The modified BTK-optimized reagent conditions for the above protocol are:
[BTK]=5 nM, [ATP]=[…], [Y5-Sox]=[…] (ATP KMapp˜[…]).

Another assay concerns the target EGFR-WT (Homo sapiens (Human), UniProt P00533). The assay can be described thus: Omnia assay for potency assessment against EGFR (WT).
Where [1] appears, read: read-out: EGFR (wild type inhibition), EGFR wild type.

Chain of BTK (Q06187 whole entry): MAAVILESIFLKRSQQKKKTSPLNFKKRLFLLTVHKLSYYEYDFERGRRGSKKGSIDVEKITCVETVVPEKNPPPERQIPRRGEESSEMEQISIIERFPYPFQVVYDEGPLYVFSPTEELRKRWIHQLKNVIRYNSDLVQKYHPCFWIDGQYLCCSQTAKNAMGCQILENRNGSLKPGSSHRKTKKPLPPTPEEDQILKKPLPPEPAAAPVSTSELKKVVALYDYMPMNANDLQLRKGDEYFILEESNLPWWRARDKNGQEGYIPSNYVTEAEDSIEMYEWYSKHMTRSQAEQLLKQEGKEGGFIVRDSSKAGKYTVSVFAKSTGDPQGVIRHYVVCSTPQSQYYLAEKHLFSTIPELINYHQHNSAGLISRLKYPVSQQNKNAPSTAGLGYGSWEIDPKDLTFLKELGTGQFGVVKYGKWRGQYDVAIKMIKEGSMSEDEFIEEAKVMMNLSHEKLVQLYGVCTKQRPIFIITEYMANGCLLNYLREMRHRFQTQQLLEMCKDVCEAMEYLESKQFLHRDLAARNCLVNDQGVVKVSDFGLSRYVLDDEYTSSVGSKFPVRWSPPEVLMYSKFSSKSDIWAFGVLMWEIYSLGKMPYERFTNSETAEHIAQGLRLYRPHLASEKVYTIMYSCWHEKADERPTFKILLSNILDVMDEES

On to `CC(C)=CC(=O)c1cccc(Nc2nc(Nc3ccccc3)ncc2C)c1` [Compound I-232, 3-methyl-1-(3-(5-methyl-2-(phenylamino)pyrimidin-4-ylamino)phenyl)but-2-en-1-one], for which the IC50 was 10 to 100 nM at BTK and 1000 to 10000 nM at EGFR-WT (setting [1]).

`C=CC(=O)Nc1cccc(Nc2nc(Nc3ccc(Cl)c(O[C@@H]4CCOC4)c3)ncc2F)c1` [Compound I-341, (R)—N-(3-(2-(4-chloro-3-(tetrahydrofuran-3-yloxy)phenylamino)-5-fluoropyrimidin-4-ylamino)phenyl)acrylamide]: the IC50 was below 10 nM at BTK and 100 to 1000 nM at EGFR-WT.

`Cc1cccc(Nc2nc(Nc3cccc(NC(=O)/C=C/CN4C[C@@H](C)N[C@@H](C)C4)c3)ncc2F)c1` [Compound I-119, (E)-4-((3R,5S)-3,5-dimethylpiperazin-1-yl)-N-(3-(5-fluoro-4-(m-tolylamino)pyrimidin-2-ylamino)phenyl)but-2-enamide]: the IC50 on BTK fell in the range of 10 to 100 nM; at EGFR-WT it was 100 to 1000 nM.

Take `C=CC(=O)Nc1cccc(Nc2ncc(F)c(Oc3ccc(Oc4ccccc4)cc3)n2)c1` [Compound I-212]: the IC50 at BTK and on EGFR-WT (setting [1]) was 1000 to 10000 nM in each case.

For the compound `C=CC(=O)N1CCC[C@@H](Sc2nc(Nc3cccc(OC)c3)ncc2F)C1` [Compound I-137, (R)-1-(3-(5-fluoro-2-(3-methoxyphenylamino)pyrimidin-4-ylthio)piperidin-1-yl)prop-2-en-1-one], the IC50 was 100 to 1000 nM at BTK and above 10000 nM at EGFR-WT (setting [1]).

As to `COc1cccc(Nc2ncc(C(F)(F)F)c(N[C@@H]3CCC[C@H](C(=O)C=C(C)C)C3)n2)c1` (stereo in doubt) [Compound I-213, 1-(3-(2-(3-Methoxy-phenylamino)-5-trifluoromethyl-pyrimidin-4-ylamino)-cyclohexyl)-3-methyl-but-2-en-1-one], the IC50 on BTK was above 10000 nM; against EGFR-WT, 100 to 1000 nM.

For the compound `C=CC(=O)Nc1cccc(Nc2nc(Nc3ccc(OCCOC)c(F)c3)ncc2C#N)c1` [Compound I-350, N-(3-(5-cyano-2-(3-fluoro-4-(2-methoxyethoxy)phenylamino)pyrimidin-4-ylamino)phenyl)acrylamide], the IC50 on BTK and at EGFR-WT (setting [1]) was below 10 nM throughout.

For `C=CC(=O)N1CCC[C@@H](Nc2nc(Nc3ccc(O[C@H]4CCOC4)cc3)ncc2F)C1` [Compound I-347, 1-((R)-3-(5-fluoro-2-(4-((S)-tetrahydrofuran-3-yloxy)phenylamino)pyrimidin-4-ylamino)piperidin-1-yl)prop-2-en-1-one], the IC50 is below 10 nM at BTK and 10 to 100 nM against EGFR-WT.

`C#CCOc1cccc(Nc2ncc(F)c(Nc3cccc(C(=O)C=C(C)C)c3)n2)c1` [Compound I-211, 1-(3-(5-fluoro-2-(3-(prop-2-ynyloxy)phenylamino)pyrimidin-4-ylamino)phenyl)-3-methylbut-2-en-1-one]: the IC50 at BTK and at EGFR-WT (setting [1]) was 1000 to 10000 nM in each case.

On to `CC(C)=CC(=O)c1cccc(Nc2nc(Nc3cccc(S(N)(=O)=O)c3)ncc2C)c1` [Compound I-224, 1-(3-(5-methyl-2-(3-aminosulfonylphenylamino)pyrimidin-4-ylamino)phenyl)-3-methylbut-2-en-1-one], for which the IC50 on BTK lay in the range of 10 to 100 nM; against EGFR-WT, 100 to 1000 nM.

Regarding `C=CC(=O)Nc1cccc(Nc2nc(Nc3cccc(OCCCN4CCCC4=O)c3)ncc2F)c1` [Compound I-144, 4-(3-acrylamidophenylamino)-5-fluoro-2-(3-(3-(2-oxopyrrolidin-1-yl)propoxy)phenylamino)-pyrimidine], the IC50 at BTK and at EGFR-WT (setting [1]) was below 10 nM in each case.

`Cc1cccc(Nc2nc(Nc3cccc(NC(=O)/C=C/CN4CC[C@H](O)C4)c3)ncc2F)c1` [Compound I-99, (S,E)-N-(3-(5-fluoro-4-(m-tolylamino)pyrimidin-2-ylamino)phenyl)-4-(3-hydroxypyrrolidin-1-yl)but-2-enamide]: the IC50 at BTK and at EGFR-WT (setting [1]) was below 10 nM throughout.

With `C=CC(=O)N1CCC[C@@H](Nc2nc(Nc3ccc(OCCOC)cc3)ncc2F)C1` [Compound I-345], the IC50 on BTK was below 10 nM; against EGFR-WT, 100 to 1000 nM.

As for `COCCN(C)C/C=C/C(=O)Nc1cccc(Nc2ncc(F)c(Nc3cccc(C)c3)n2)c1` [Compound I-120, (E)-N-(3-(5-fluoro-4-(m-tolylamino)pyrimidin-2-ylamino)phenyl)-4-((2-methoxyethyl)(methyl)amino)but-2-enamide], the IC50 at BTK and on EGFR-WT (setting [1]) was below 10 nM each time.

Consider `C=CC(=O)Nc1cccc(Nc2nc(Nc3ccccc3)ncc2C(=O)NC2CC2)c1` [Compound I-221, 4-(3-acrylamidophenylamino)-N-cyclopropyl-2-(phenylamino)pyrimidine-5-carboxamide], for which the IC50 on BTK and at EGFR-WT was 10 to 100 nM in each case.

As for “4-(4-(4-(3-acrylamidophenylamino)-5-fluoropyrimidin-2-ylamino)phenoxy) pyridine [Compound I-346]”, the IC50 was below 10 nM at BTK and 100 to 1000 nM at EGFR-WT (setting [1]).

For “N-(3-(5-fluoro-2(3,4,5-trimethoxyphenylamino)pyrimidin-4-yloxy)phenyl)acrylamide [Compound I-148]”, the IC50 at BTK and on EGFR-WT (setting [1]) was 1000 to 10000 nM each time.

With `C=CC(=O)N1CCC[C@H](Nc2nc(Nc3cccc(OC)c3)ncc2F)C1` [Compound I-196, (S)-1-(3-(5-fluoro-2-(3-methoxyphenylamino)pyrimidin-4-ylamino)piperidin-1-yl)prop-2-en-1-one], the IC50 fell in the range of 10 to 100 nM on BTK and 1000 to 10000 nM at EGFR-WT (setting [1]).

With `C=CC(=O)Nc1ccc(Nc2nc(Nc3cncc(OC)c3)ncc2C(F)(F)F)cc1` [Compound I-214, N-(4-(5-trifluoromethyl-2-(5-methoxypyridin-3-ylamino)pyrimidin-4-ylamino)phenyl)acrylamide], the values for the IC50 on BTK and against EGFR-WT were 10 to 100 nM and 100 to 1000 nM, respectively.

As to `C/C=C/C(=O)OCc1ccc(Nc2nc(Nc3ccccc3)ncc2C)cc1` [Compound I-60, (E)-4-(5-methyl-2-(phenylamino)pyrimidin-4-ylamino) benzyl but-2-enoate], the IC50 at BTK was in the range of 100 to 1000 nM; on EGFR-WT (setting [1]), 1000 to 10000 nM.

As to `C=CC(=O)Nc1cccc(N(C)c2nc(Nc3ccccc3)ncc2C)c1` [Compound I-34, N-(3-(methyl(5-methyl-2-(phenylamino)pyrimidin-4-yl)amino)phenyl)acrylamide], the IC50 was in the range of 10 to 100 nM at BTK and 100 to 1000 nM against EGFR-WT.

Regarding `C=CC(=O)N1CCCC(Oc2nc(Nc3ccc(OC)nc3)ncc2F)C1` (stereo not drawn) [Compound I-191], the IC50 at BTK was below 10 nM; on EGFR-WT (setting [1]), 1000 to 10000 nM.

Turning to `C=CC(=O)Nc1ccc(Nc2nc(Nc3cccc(OC)c3)ncc2C(F)(F)F)cc1` [Compound I-236, N-(4-(5-trifluoromethyl-2-(3-methoxyphenylamino)pyrimidin-4-ylamino)phenyl)acrylamide], the IC50 at BTK is 10 to 100 nM; on EGFR-WT (setting [1]), 1000 to 10000 nM.

For `C=CC(=O)Nc1cccc(Nc2nc(Nc3ccc(Cl)c(O[C@H](C)CO)c3)ncc2F)c1` [Compound I-358, (R)—N-(3-(2-(4-chloro-3-(1-hydroxypropan-2-yloxy)phenylamino)-5-fluoropyrimidin-4-ylamino)phenyl)acrylamide], the IC50 on BTK was below 10 nM; on EGFR-WT, 100 to 1000 nM.
